In ChEMBL document CHEMBL1131822, “Nonpeptidic HIV protease inhibitors: 6-alkyl-5,6-dihydropyran-2-ones possessing a novel and achiral 3-(2-t-butyl-5-methyl-4-sulfamate)phenylthio moiety” (Bioorg Med Chem Lett, 1999):

Experiments:
CYP3A4 [1] = molecular target: T1, CYP3A4 (Homo sapiens, UniProt P08684); experiment: Inhibition of Cytochrome P450 3A4 at 10 uM; format: ADME
CYP2D6 [2] = experiment: Inhibition of Cytochrome P450 2D6 at 10 uM; format: ADME
CYP3A4 [3] = molecular target: T1, CYP3A4; experiment: Inhibition of Cytochrome P450 3A4 at 100 uM; format: ADME
CYP2C9 [4] = molecular target: T2, CYP2C9 (Homo sapiens, UniProt P11712); experiment: Inhibition of Cytochrome P450 2C9 at 100 uM; format: ADME
T2 sequence (P11712 whole entry): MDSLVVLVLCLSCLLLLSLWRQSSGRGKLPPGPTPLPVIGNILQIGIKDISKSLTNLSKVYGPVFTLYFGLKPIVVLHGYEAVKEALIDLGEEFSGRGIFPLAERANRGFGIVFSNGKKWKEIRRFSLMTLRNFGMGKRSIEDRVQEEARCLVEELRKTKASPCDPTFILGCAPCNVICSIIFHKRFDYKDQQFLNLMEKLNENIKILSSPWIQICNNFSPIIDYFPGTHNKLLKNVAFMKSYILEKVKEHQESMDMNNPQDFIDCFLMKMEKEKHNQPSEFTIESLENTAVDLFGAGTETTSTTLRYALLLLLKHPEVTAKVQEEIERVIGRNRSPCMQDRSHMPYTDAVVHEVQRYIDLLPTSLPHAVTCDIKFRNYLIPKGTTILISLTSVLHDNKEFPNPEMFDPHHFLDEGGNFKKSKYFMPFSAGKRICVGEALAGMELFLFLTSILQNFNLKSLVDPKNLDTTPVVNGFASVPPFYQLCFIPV

[5] = molecular target: T3, Human immunodeficiency virus type 1 protease (Human immunodeficiency virus 1, UniProt Q72874); experiment: Tested in vitro for HIV protease (PR) binding affinity
CYP2C9 [6] = molecular target: T2, CYP2C9; experiment: Inhibition of Cytochrome P450 2C9 at 10 uM; format: ADME
CYP2D6 [7] = experiment: Inhibition of Cytochrome P450 2D6 at 100 uM; format: ADME
[8] = Therapeutic index was determined; details: read-out: Therapeutic index
CYP2C9 [9] = molecular target: T2, CYP2C9; experiment: Inhibition of Cytochrome P450 2C9 at 1 uM; format: ADME
[10] = test system: Human immunodeficiency virus 1; experiment: In vitro inhibition of HIV-1 (IIIB) cytopathic effects in CEM (human leukemia) cells.; format: functional, organism-based; details: Human immunodeficiency virus 1, CCRF-CEM
CYP3A4 [11] = molecular target: T1, CYP3A4; experiment: Inhibition of Cytochrome P450 3A4 at 1 uM; format: ADME
CYP2D6 [12] = experiment: Inhibition of Cytochrome P450 2D6 at 1 uM; format: ADME
[13] = molecular target: T3, Human immunodeficiency virus type 1 protease; experiment: Compound was tested for binding affinity against HIV protease
[14] = In vitro Cytotoxicity against uninfected CEM (human leukemia) cells.; format: functional; details: CCRF-CEM, read-out: TC50 (the source's name)

T1 sequence (P08684 whole entry): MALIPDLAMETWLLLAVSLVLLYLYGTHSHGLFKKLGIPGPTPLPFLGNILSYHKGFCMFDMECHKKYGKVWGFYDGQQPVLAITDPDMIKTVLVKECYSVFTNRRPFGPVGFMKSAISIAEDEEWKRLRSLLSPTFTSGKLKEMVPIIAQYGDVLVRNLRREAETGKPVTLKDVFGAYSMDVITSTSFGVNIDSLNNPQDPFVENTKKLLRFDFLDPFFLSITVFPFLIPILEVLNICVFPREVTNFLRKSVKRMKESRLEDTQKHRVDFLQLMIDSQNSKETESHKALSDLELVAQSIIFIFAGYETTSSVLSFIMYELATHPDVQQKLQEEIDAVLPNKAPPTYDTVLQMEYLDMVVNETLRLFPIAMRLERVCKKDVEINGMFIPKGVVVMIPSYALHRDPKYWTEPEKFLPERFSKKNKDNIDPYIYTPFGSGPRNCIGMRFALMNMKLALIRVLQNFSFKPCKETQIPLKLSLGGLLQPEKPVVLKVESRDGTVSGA

Cc1cc(SC2=C(O)O[C@](CCc3ccc(N)cc3)(C(C)C)CC2=O)c(C(C)(C)C)cc1CO showed an inhibition at 10 µM (CYP3A4 [1]) of 16%, an inhibition at 10 µM (CYP2D6 [2]) of 16% and an inhibition at 100 µM (CYP3A4 [3]) of 30%. For the same compound, the inhibition at 100 µM (CYP2C9 [4]) was 59%, the IC50 [5] was 1 nM and the inhibition at 10 µM (CYP2C9 [6]) was 12%. The inhibition at 100 µM (CYP2D6 [7]) was 33%, the selectivity ratio [8] was 1050 and the inhibition at 1 µM (CYP2C9 [9]) was 2%. It also gave an EC50 [10] of 200 nM, an inhibition at 1 µM (CYP3A4 [11]) of 4% and an inhibition at 1 µM (CYP2D6 [12]) of 3%. It also gave a Ki [13] of 0.11 nM.

With Cc1cc(SC2=C(O)OC(CCc3ccc(O)cc3)(C(C)C)CC2=O)c(C(C)(C)C)cc1OS(=O)(=O)N1CCOCC1 (configuration not stated) the CC50 [14] was 84000 nM, the IC50 [5] was 2.6 nM and the selectivity ratio [8] was 109. The EC50 [10] was 770 nM.

CCNS(=O)(=O)Oc1cc(C(C)(C)C)c(SC2=C(O)OC(CCc3ccc(N)cc3)(C(C)C)CC2=O)cc1C (configuration not stated) gave a CC50 [14] of 74000 nM, an IC50 [5] of 4.3 nM and a selectivity ratio [8] of 117. For the same compound, the EC50 [10] was 630 nM.

In the case of CCNS(=O)(=O)Oc1cc(C(C)(C)C)c(SC2=C(O)OC(CCc3ccc(O)cc3)(C3CCCCC3)CC2=O)cc1C (configuration not stated), the CC50 [14] is reported as 67000 nM, the IC50 [5] is reported as 4.8 nM and the selectivity ratio [8] is reported as 48. The EC50 [10] was 1400 nM.

Cc1cc(SC2=C(O)OC(CCc3ccc(N)cc3)(C(C)C)CC2=O)c(C(C)(C)C)cc1OS(=O)(=O)N(C)C (configuration not stated) gave a CC50 [14] of 64000 nM, an IC50 [5] of 3.9 nM and a selectivity ratio [8] of 86. It also gave an EC50 [10] of 740 nM.

Cc1cc(SC2=C(O)OC(CCc3ccc(N)cc3)(C(C)C)CC2=O)c(C(C)(C)C)cc1OS(=O)(=O)N1CCN(C)CC1 (configuration not stated) gave a CC50 [14] of 71000 nM, an IC50 [5] of 1 nM and a selectivity ratio [8] of 127. It also gave an EC50 [10] of 560 nM.

Compound CCCNS(=O)(=O)Oc1cc(C(C)(C)C)c(SC2=C(O)OC(C)(CCc3ccc(O)cc3)CC2=O)cc1C (configuration not stated) has a CC50 [14] of 66000 nM, an IC50 [5] of 6.2 nM and a selectivity ratio [8] of 15. The EC50 [10] was 4300 nM.

Cc1cc(SC2=C(O)OC(CCc3ccc(O)cc3)(C(C)C)CC2=O)c(C(C)(C)C)cc1OS(=O)(=O)N(C)C (configuration not stated) gave a CC50 [14] of 70000 nM, an IC50 [5] of 3.4 nM and a selectivity ratio [8] of 100. For the same compound, the EC50 [10] was 700 nM.

With Cc1cc(SC2=C(O)OC(C)(CCc3ccc(O)cc3)CC2=O)c(C(C)(C)C)cc1O (configuration not stated) the CC50 [14] was 7000 nM, the IC50 [5] was 6.5 nM and the selectivity ratio [8] was less than 1. For the same compound, the EC50 [10] was greater than 7000 nM.

Compound CCNS(=O)(=O)Oc1cc(C(C)(C)C)c(SC2=C(O)OC(CCc3ccccc3)(C(C)C)CC2=O)cc1C (configuration not stated) has a CC50 [14] of 67000 nM, an IC50 [5] of 8.9 nM and a selectivity ratio [8] of 87. For the same compound, the EC50 [10] was 770 nM.

With Cc1cc(SC2=C(O)OC(CCc3ccccc3)(C(C)C)CC2=O)c(C(C)(C)C)cc1OS(=O)(=O)N1CCN(C)CC1 (configuration not stated) the CC50 [14] was greater than 100000 nM, the IC50 [5] was 3.9 nM and the selectivity ratio [8] was greater than 61. For the same compound, the EC50 [10] was 1650 nM.

Cc1cc(SC2=C(O)OC(C)(CCc3ccc(O)cc3)CC2=O)c(C(C)(C)C)cc1OS(=O)(=O)N(C)C (configuration not stated) showed a CC50 [14] greater than 100000 nM, an IC50 [5] of 1.6 nM and a selectivity ratio [8] greater than 12. It also gave an EC50 [10] of 8200 nM.

For CCCNS(=O)(=O)Oc1cc(C(C)(C)C)c(SC2=C(O)OC(CCc3ccc(O)cc3)(C(C)C)CC2=O)cc1C (configuration not stated), the CC50 [14] was greater than 100000 nM, the IC50 [5] was 3 nM and the selectivity ratio [8] was greater than 83. For the same compound, the EC50 [10] was 1200 nM.

With Cc1cc(SC2=C(O)OC(C)(CCc3ccc(O)cc3)CC2=O)c(C(C)(C)C)cc1OS(=O)(=O)N1CCN(C)CC1 (configuration not stated) the CC50 [14] was greater than 100000 nM, the IC50 [5] was 7.1 nM and the selectivity ratio [8] was greater than 44. It also gave an EC50 [10] of 2300 nM.

For CCNS(=O)(=O)Oc1cc(C(C)(C)C)c(SC2=C(O)OC(CCc3ccc(O)cc3)(C(C)C)CC2=O)cc1C (configuration not stated), the CC50 [14] was greater than 100000 nM, the IC50 [5] was 4.9 nM and the selectivity ratio [8] was greater than 91. For the same compound, the EC50 [10] was 1100 nM.

Work on CNS(=O)(=O)Oc1cc(C(C)(C)C)c(SC2=C(O)OC(CCc3ccc(O)cc3)(C(C)C)CC2=O)cc1C (configuration not stated) yielded a CC50 [14] greater than 100000 nM, an IC50 [5] of 1.2 nM and a selectivity ratio [8] greater than 91. For the same compound, the EC50 [10] was 1100 nM.

CCNS(=O)(=O)Oc1cc(C(C)(C)C)c(SC2=C(O)OC(CCc3ccc(O)cc3)(c3ccccc3)CC2=O)cc1C (configuration not stated) gave a CC50 [14] of 66000 nM, an IC50 [5] of 26 nM and a selectivity ratio [8] of 15. The EC50 [10] was 4300 nM.

For Cc1cc(SC2=C(O)OC(C)(CCc3ccc(O)cc3)CC2=O)c(C(C)(C)C)cc1OS(N)(=O)=O (configuration not stated), the CC50 [14] was 69000 nM, the IC50 [5] was 1.8 nM and the selectivity ratio [8] was 13. The EC50 [10] was 5200 nM.

Work on CCNS(=O)(=O)Oc1cc(C(C)(C)C)c(SC2=C(O)OC(C)(CCc3ccc(O)cc3)CC2=O)cc1C (configuration not stated) yielded an inhibition at 10 µM (CYP3A4 [1]) of 10%, a CC50 [14] of 66000 nM and an inhibition at 10 µM (CYP2D6 [2]) of 89%. For the same compound, the inhibition at 100 µM (CYP3A4 [3]) was 58%, the inhibition at 100 µM (CYP2C9 [4]) was 46% and the IC50 [5] was 2.3 nM. For the same compound, the inhibition at 10 µM (CYP2C9 [6]) was 6%, the inhibition at 100 µM (CYP2D6 [7]) was 100% and the selectivity ratio [8] was 44. It also gave an inhibition at 1 µM (CYP2C9 [9]) of 0%, an EC50 [10] of 1500 nM and an inhibition at 1 µM (CYP3A4 [11]) of 1%. For the same compound, the inhibition at 1 µM (CYP2D6 [12]) was 62%.

With Cc1cc(SC2=C(O)OC(CCc3ccc(O)cc3)(C(C)C)CC2=O)c(C(C)(C)C)cc1OS(=O)(=O)N1CCN(C)CC1 (configuration not stated) the inhibition at 10 µM (CYP3A4 [1]) was 22%, the CC50 [14] was greater than 100000 nM and the inhibition at 10 µM (CYP2D6 [2]) was 86%. The inhibition at 100 µM (CYP3A4 [3]) was 81%, the IC50 [5] was 3.1 nM and the inhibition at 100 µM (CYP2D6 [7]) was 100%. The selectivity ratio [8] was greater than 200, the EC50 [10] was 500 nM and the inhibition at 1 µM (CYP3A4 [11]) was 0%. For the same compound, the inhibition at 1 µM (CYP2D6 [12]) was 39%.

Compound Cc1cc(SC2=C(O)OC(CCc3ccc(O)cc3)(C3CCCCC3)CC2=O)c(C(C)(C)C)cc1OS(=O)(=O)N1CCN(C)CC1 (configuration not stated) has a CC50 [14] greater than 100000 nM, an IC50 [5] of 9.7 nM and a selectivity ratio [8] greater than 20. For the same compound, the EC50 [10] was 5100 nM.

Work on Cc1cc(SC2=C(O)OC(CCc3ccc(O)cc3)(C3CCCCC3)CC2=O)c(C(C)(C)C)cc1OS(=O)(=O)N(C)C (configuration not stated) yielded a CC50 [14] of 60000 nM, an IC50 [5] of 20 nM and a selectivity ratio [8] of 12. The EC50 [10] was 5000 nM.
